{
  "source": "patent US8541572B2",
  "data": [
    {"test_system": "TNF-α production in LPS-stimulated human whole blood", "assay": "Inhibition of TNF-α production from human whole blood (hWBA)", "assay_type": "cell-based", "conditions": "Homo sapiens, IC50 for inhibition of TNF-α production, LPS-stimulated human whole blood; read-out: hWBA", "units": {"IC50": "nM"}, "values": [
      {"smiles": "COc1ccc2c(c1)C(=O)N(C[C@@]1(C#Cc3ccc(CN4CCN(c5nccs5)CC4)cc3)NC(=O)NC1=O)C2", "note": "[Compound 980]", "IC50": 3130},
      {"smiles": "COc1ccc2c(c1F)C(=O)N(C[C@@]1(C#Cc3ccc(CN4CCN(c5ccncc5)CC4)cc3)NC(=O)NC1=O)C2", "note": "[Compound 981]", "IC50": 290},
      {"smiles": "COc1ccc2c(c1F)C(=O)N(C[C@@]1(C#Cc3ccc(CN4CCN(C5CCCCC5)CC4)cc3)NC(=O)NC1=O)C2", "note": "[Compound 982]", "IC50": 255},
      {"smiles": "COc1ccc2c(c1F)C(=O)N(C[C@]1(C#Cc3ccc(CN4CCN(C5CCCCC5)CC4)cc3)NC(=O)NC1=O)C2", "note": "[Compound 985]", "IC50": 100000},
      {"smiles": "COc1ccc2c(c1F)C(=O)N(C[C@@]1(C#Cc3ccc(-c4cccc(N5CCN(C6CCCCC6)CC5)n4)c(F)c3)NC(=O)NC1=O)C2", "note": "[Compound 994]", "IC50": 2430},
      {"smiles": "COc1ccc2c(c1F)C(=O)N(C[C@@]1(C#Cc3ccc(-c4cccc(N5CCOCC5)n4)c(F)c3)NC(=O)NC1=O)C2", "note": "[Compound 996]", "IC50": 2560},
      {"smiles": "COc1ccc2c(c1)C(=O)N(C[C@@]1(C#Cc3cccc(N4CCSCC4)n3)NC(=O)NC1=O)C2", "note": "[Compound 997]", "IC50": 4320},
      {"smiles": "COc1ccc2c(c1F)C(=O)N(C[C@@]1(C#Cc3ccc(-c4nc(-c5cccnc5)ccc4O)cc3)NC(=O)NC1=O)C2", "note": "[Compound 1001]", "IC50": 106},
      {"smiles": "COc1ccc2c(c1F)C(=O)N(C[C@@]1(C#Cc3ccc(-c4nc(-c5cccnc5)ccc4O)c(F)c3)NC(=O)NC1=O)C2", "note": "[Compound 1002]", "IC50": 119}
    ]},
    {"test_system": "TNF-α production in LPS-stimulated human whole blood", "assay": "Inhibition of TNF-α production from human whole blood (hWBA)", "assay_type": "cell-based", "conditions": "IC50 for inhibition of TNF-α production, LPS-stimulated human whole blood; read-out: hWBA", "units": {"IC50": "nM"}, "values": [
      {"smiles": "COc1ccc2c(c1)C(=O)N(C[C@@]1(C#Cc3ccc(-c4nc(-c5cccnc5)ccc4OC(C)=O)cc3)NC(=O)NC1=O)C2", "note": "[Compound 975]", "IC50": 61.6},
      {"smiles": "CCN1CCN(c2ccc(O)c(-c3ccc(C#C[C@]4(CN5Cc6ccc(OC)cc6C5=O)NC(=O)NC4=O)cc3F)n2)CC1", "note": "[Compound 976]", "IC50": 39.8},
      {"smiles": "CCN1CCN(Cc2ccc(C#C[C@]3(CN4Cc5ccc(OC)cc5C4=O)NC(=O)NC3=O)cn2)CC1", "note": "[Compound 977]", "IC50": 782},
      {"smiles": "CCN1CCN(Cc2ccc(C#C[C@]3(CN4Cc5ccc(OC)c(F)c5C4=O)NC(=O)NC3=O)cn2)CC1", "note": "[Compound 978]", "IC50": 156},
      {"smiles": "COc1ccc2c(c1F)C(=O)N(C[C@@]1(C#Cc3ccc(CN4CCN(c5ccncc5)CC4)nc3)NC(=O)NC1=O)C2", "note": "[Compound 979]", "IC50": 228},
      {"smiles": "CCN1CCN(Cc2ccc(C#C[C@]3(CN4Cc5ccc(OC)c(F)c5C4=O)NC(=O)NC3=O)cc2F)CC1", "note": "[Compound 983]", "IC50": 250},
      {"smiles": "CCN1CCN(C(C)c2ccc(C#C[C@]3(CN4Cc5ccc(OC)c(F)c5C4=O)NC(=O)NC3=O)cc2)CC1", "note": "(stereo partly shown) [Compound 984]", "IC50": 695},
      {"smiles": "COc1ccc2c(c1F)C(=O)N(C[C@@]1(C#Cc3ccc(-c4nc(-c5cnn(C)c5)ccc4O)cc3)NC(=O)NC1=O)C2", "note": "[Compound 986]", "IC50": 87},
      {"smiles": "COc1ccc2c(c1F)C(=O)N(C[C@@]1(C#Cc3ccc(-c4nc(-c5cnn(C)c5)ccc4O)c(F)c3)NC(=O)NC1=O)C2", "note": "[Compound 987]", "IC50": 75.4},
      {"smiles": "COc1ccc2c(c1)C(=O)N(C[C@@]1(C#Cc3ccc(-c4nc(-c5cnn(C)c5)ccc4OC(=O)C(C)(C)C)cc3)NC(=O)NC1=O)C2", "note": "[Compound 990]", "IC50": 42.8},
      {"smiles": "CCN1CCN(c2cccc(-c3ccc(C#C[C@]4(CN5Cc6ccc(OC)c(F)c6C5=O)NC(=O)NC4=O)cc3)n2)CC1", "note": "[Compound 991]", "IC50": 606},
      {"smiles": "CCN1CCN(c2cccc(-c3ccc(C#C[C@]4(CN5Cc6ccc(OC)c(F)c6C5=O)NC(=O)NC4=O)cc3F)n2)CC1", "note": "[Compound 992]", "IC50": 808},
      {"smiles": "COc1ccc2c(c1F)C(=O)N(C[C@@]1(C#Cc3ccc(-c4cccc(N5CCN(C6CCCCC6)CC5)n4)cc3)NC(=O)NC1=O)C2", "note": "[Compound 993]", "IC50": 856},
      {"smiles": "COc1ccc2c(c1F)C(=O)N(C[C@@]1(C#Cc3ccc(-c4cccc(N5CCOCC5)n4)cc3)NC(=O)NC1=O)C2", "note": "[Compound 995]", "IC50": 1640},
      {"smiles": "COc1ccc2c(c1F)C(=O)N(C[C@@]1(C#Cc3ccc(-c4cccc(N5CCSCC5)n4)cc3)NC(=O)NC1=O)C2", "note": "[Compound 999]", "IC50": 4150},
      {"smiles": "COc1ccc2c(c1F)C(=O)N(C[C@@]1(C#Cc3ccc(-c4nc(N5CCC(=O)CC5)ccc4O)cc3)NC(=O)NC1=O)C2", "note": "[Compound 1003]", "IC50": 124}
    ]}
  ]
}
